# PMC8354230 (Journal of Virology, 2021)
# Where two headings read alike, the source gives them in different places.
# Assays:
# [1] = system: SARS-CoV-2 S protein-mediated cell-cell fusion; assay: microbe, parasite or virus in culture; format: cell-based
# [2] = system: 293FT/ACE2/TMPRSS2/DSP1-7 cells; settings: 2 days; for cell viability: at concentrations above 40 µM; for concentration above which cytotoxicity was exhibited / CC50: WST-8; for CC50: 293FT/ACE2/TMPRSS2/DSP1-7 cells
# in vitro = settings: human
# [3] = system: HEK293FT cells expressing DSP1-7 and DSP8-11; format: cell-based; settings: 2 days treatment
# [4] = system: 293FT/ACE2/TMPRSS2/DSP1-7 cells; assay: Quantification of sphingolipids by LC-MS/MS in 293FT/ACE2/TMPRSS2/DSP1-7 cells; format: cell-based; settings: for reduction in total sphingolipid levels: 40 µM, vs DMSO
# VeroE6^TMPRSS2 cells [5] = assay: WST-8 cytotoxicity assay in VeroE6^TMPRSS2 cells; format: cell-based; settings: 3 days; for concentration above which cytotoxicity was exhibited: WST-8
# [6] = system: SARS-CoV-2 NCGM-05-2N strain; assay: microbe, parasite or virus in culture; format: cell-based
# VeroE6^TMPRSS2 cells [7] = assay: Quantification of sphingolipids by LC-MS/MS in VeroE6^TMPRSS2 cells; format: cell-based; settings: 3 days
# [8] = system: 293FT/ACE2/TMPRSS2/DSP1-7 cells; assay: Cellular membrane fluidity with lipophilic pyrene probe; format: cell-based; settings: for decrease in membrane fluidity: 2 days, compared with DMSO
# ACE2 [9] = assay: Cell surface expression of ACE2 by flow cytometry; format: cell-based; settings: 293FT/ACE2/TMPRSS2/DSP1-7 cells, 5 µM, compared with DMSO or 10 µM GT11
# ACE2 [10] = format: cell-based; settings: 5 µM 4-HPR vs DMSO
# [11] = cited from earlier work
# [12] = Severe acute respiratory syndrome coronavirus 2, 48 h
Compound,antimembrane fusion activity [1],"EC50 [1, 12] [µM]",cell viability [2],CC50 (in vitro) [µM],concentration above which cytotoxicity was exhibited [2],EC50 [1] [µM],CC50 [2] [µM],also measured
"O[C@H]1[C@H](O)[C@@H](O)[C@@H]2O[C@@H]2[C@@H]1O (racemic) [CBE, conduritol B epoxide]",little or no antimembrane fusion activity,> 40,unaffected,> 40,–,–,–,–
"CC1=C(/C=C/C(C)=C/C=C/C(C)=C/C(=O)Nc2ccc(O)cc2)C(C)(C)CCC1 [4-HPR, N-(4-Hydroxyphenyl) retinamide]",–,4.1,–,11.5,above 10 µM,–,–,"inhibition of DSP activity (cell-cell fusion) [1]: more than 50%; luciferase activity in cells harboring preformed DSP1-7/DSP8-11 reporter complex [3]: not affected; ratio of saturated sphinganine-based lipids to total sphingolipids ([4]; 2.5 µM 4-HPR, 2 days): ~10%; ratio of saturated sphinganine-based lipids to total sphingolipids ([4]; 5 µM 4-HPR, 2 days): ~20%; concentration above which cytotoxicity was exhibited (VeroE6^TMPRSS2 cells [5]): above 10 µM; antiviral activity [6]: no antiviral activity; EC50 ([6]; Severe acute respiratory syndrome coronavirus 2, VeroE6/TMPRSS2): 4.4 µM; ratio of saturated sphinganine-based lipids to total sphingolipids (VeroE6^TMPRSS2 cells [7]; 1.3 µM): 12%; ratio of saturated sphinganine-based lipids to total sphingolipids (VeroE6^TMPRSS2 cells [7]; 2.5 µM): 17%; ratio of saturated sphinganine-based lipids to total sphingolipids (VeroE6^TMPRSS2 cells [7]; 5 µM): 25%; decrease in membrane fluidity ([8]; 2.5 µM): ~20%; decrease in membrane fluidity ([8]; 5 µM): about 50%; ACE2 expression levels on cell surface (ACE2 [9]): No significant differences; ACE2 localization in the membrane microdomain (ACE2 [10]): no dramatic difference; toxicity profile in clinical trials and long-term treatments [11]: low-toxicity profile; day 6 mean peak plasma concentration ([11]; oral powder, 1,500 mg/m^2 per day, patients with relapsed/refractory neuroblastoma): 21 µM"
CN(C)CCC=C1c2ccccc2CCc2ccccc21 [Amitriptyline],little or no antimembrane fusion activity,> 40,unaffected,> 40,–,–,–,–
"CCCCCCCCCCCCC/C=C/[C@@H](O)[C@H](CO)NC(=O)CCCCCCC [C8-Cer, N-Octanoyl-d-erythro-sphingosine]",–,–,–,–,–,–,–,"cell-cell fusion efficiencies [1]: no significant differences; decrease in ratio of saturated sphinganine-based lipids to total sphingolipids ([4]; 10 µM C8-Cer with 5 µM 4-HPR, compared to 4-HPR treated cells): approximately 74%"
COc1ccc(/C=C/C(=O)c2c(-c3ccccc3)c3ccccc3[nH]c2=O)cc1 [Ceranib-2],little or no antimembrane fusion activity,–,–,–,above 2.5 µM,> 1.3,26.9,–
CCCCCCCCc1ccc(CCC(N)(CO)CO)cc1 [FTY720],little or no antimembrane fusion activity,> 5,–,12.5,above 10 µM,–,–,–
CCCC[C@@H](C)[C@@H](OC(=O)C[C@@H](CC(=O)O)C(=O)O)[C@H](C[C@@H](C)C[C@H](O)CCCC[C@@H](O)C[C@H](O)[C@H](C)N)OC(=O)C[C@@H](CC(=O)O)C(=O)O [Fumonisin B1],little or no antimembrane fusion activity,–,unaffected,–,–,> 40,> 40,reduction in total sphingolipid levels ([4]; 2 days): ~79%
CCCCCCCCCCCCCC1=C([C@H](O)[C@@H](CO)NC(=O)CCCCCCC)C1 [GT11],little or no antimembrane fusion activity,–,–,–,above 20 µM,> 10,20.3,"ratio of saturated sphinganine-based lipids to total sphingolipids ([4]; 10 µM GT11, 2 days): ~10%; concentration above which cytotoxicity was exhibited (VeroE6^TMPRSS2 cells [5]): above 10 µM; antiviral activity [6]: no antiviral activity; membrane fluidity ([8]; 10 µM GT11 compared with 2.5 µM 4-HPR): not significantly different"
O=C(/C=C/c1ccc(/C=C/C(=O)Nc2ccc(C3=NCCN3)cc2)cc1)Nc1ccc(C2=NCCN2)cc1 [GW4869],little or no antimembrane fusion activity,–,–,–,above 20 µM,> 10,> 40,–
CCCCCCCCCCCC(=O)N[C@@H](CO)C[C@H](O)c1ccccc1 [HPA12],little or no antimembrane fusion activity,–,unaffected,–,–,> 40,> 40,–
CCCCCCC(=O)CCCCCC/C=C/C[C@@H](O)[C@H](O)[C@@](N)(CO)C(=O)O [Myriocin],little or no antimembrane fusion activity,> 40,unaffected,> 40,–,–,–,reduction in total sphingolipid levels ([4]; 2 days): approximately 65%; effect on cell viability (VeroE6^TMPRSS2 cells [5]; at a concentration above 20 µM): no effect; antiviral activity [6]: did not exhibit antiviral activity; reduction in total sphingolipid levels (VeroE6^TMPRSS2 cells [7]; vs DMSO): approximately 50%
Oc1ccc(Nc2nc(-c3ccc(Cl)cc3)cs2)cc1 [SKI-II],little or no antimembrane fusion activity,–,–,–,above 20 µM,> 10,> 40,–
CCCCCCCCCCCCCCCC(=O)NC(CN1CCOCC1)C(O)c1ccccc1 (stereo not drawn) [erythro-PPMP],–,–,–,–,–,9.1,35.8,"levels of GlcCer ([4]; 10 µM, compared to DMSO-treated cells): decreased"
"CCCCCCCCCCCCCCCC(=O)NC(CN1CCOCC1)C(O)c1ccccc1 (stereo not drawn) [threo-PPMP, 1-phenyl-2-palmitoylamino-3-morpholino-1-propanol]",–,8.7,–,25.6,above 20 µM,–,–,inhibition of DSP activity (cell-cell fusion) [1]: more than 50%; luciferase activity in cells harboring preformed DSP1-7/DSP8-11 reporter complex [3]: not affected; concentration above which cytotoxicity was exhibited (VeroE6^TMPRSS2 cells [5]): above 20 µM; antiviral activity [6]: did not exhibit antiviral activity; reduction in total GlcCer levels (VeroE6^TMPRSS2 cells [7]; compared to DMSO): approximately 60%
